The values that follow are results of earlier work, collected in US20260207574A1, “Pharmaceutical composition of pitolisant hydrochloride and Their Process for the preparation” (MSN Laboratories Private Limited, R & D Center, priority 2022, published 2026).

Where a name gives a salt, the structure may show the parent alone.

The conditions of data set [1]: leads to N-oxide derivative as main degradation product; as per EMA.
The conditions of data set [2]: until 75% RH; as per EMA.

On to `Clc1ccc(CCCOCCCN2CCCCC2)cc1` [pitolisant], for which the “solubility in water until pH 7.5” value (water, until pH 7.5, as per EMA) is “very soluble”. For the same compound, in data set [1], the “sensitivity to oxidative conditions” value is on record as “sensitive to excessive oxidative conditions”. The hygroscopicity entry in data set [2] was “not hygroscopic”.

Take `Clc1ccc(CCCOCCCN2CCCCC2)cc1` [Pitolisant hydrochloride, 1-{3-[3-(4-chlorophenyl)propoxy]propyl} piperidine, hydrochloride]: the solubility in acetone result (acetone) is “freely soluble”. Besides, for the setting “cyclohexane”, the solubility in cyclohexane result is recorded as “practically insoluble”. In addition, the solubility in ethanol entry (ethanol) is recorded as “very soluble”. Moreover, the “solubility in methylene chloride” value (methylene chloride) is recorded as “very soluble”. Further, the solubility in water result (water) is “very soluble”.
